Where two headings read alike, the source gives them in different places.
Experiments:
CYP3A4 [1] = biological target: T1, CYP3A4 (Homo sapiens, UniProt P08684); test: CYP3A4 inhibition; assay type: in vitro ADME; conditions: Table 4
CYP2C19 [2] = biological target: T2, CYP2C19 (Homo sapiens, UniProt P33261); test: CYP2C19 inhibition; assay type: in vitro ADME; conditions: Table 4
hERG ion channel = hERG ion channel (Homo sapiens, UniProt Q12809); test: hERG ion channel block, patch clamp assay
[3] = Stability in simulated intestinal fluid; conditions: Table 4
[4] = Pharmacokinetics in Wistar rats (i.v., i.p.)
hP2Y14R = biological target: T3, hP2Y14R (Homo sapiens, UniProt Q15391); test: Inhibition of fluorescent antagonist binding in whole hP2Y14R-expressing CHO cells (flow cytometry); conditions: Table 2; tracer 2 (20 nM, 45 min), CHO cells; read-out: hP2Y14R, IC50
T3 construct: expressed in transfected cells; host or cells: CHO cells
T3 sequence (Q15391 1-338): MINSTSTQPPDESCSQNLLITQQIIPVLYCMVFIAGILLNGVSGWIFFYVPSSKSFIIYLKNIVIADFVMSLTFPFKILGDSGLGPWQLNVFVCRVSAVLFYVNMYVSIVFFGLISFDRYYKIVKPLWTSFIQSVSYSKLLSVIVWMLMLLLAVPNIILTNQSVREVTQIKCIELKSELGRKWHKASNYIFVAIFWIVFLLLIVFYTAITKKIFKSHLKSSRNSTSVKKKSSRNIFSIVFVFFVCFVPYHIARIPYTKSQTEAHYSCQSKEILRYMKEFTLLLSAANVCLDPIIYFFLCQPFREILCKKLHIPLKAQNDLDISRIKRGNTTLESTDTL

Plasma stability, mouse = conditions: Table 4
[5] = tested on: CCI-induced mechano-allodynia; test: Chronic constriction injury (CCI) mouse model of neuropathic pain; conditions: 10 μmol/kg, i.p., day 7 post-injury
[6] = Microsomal stability, mouse; assay type: in vitro ADME; conditions: Table 4
CYP1A2 [7] = biological target: T4, CYP1A2 (Homo sapiens, UniProt P05177); test: CYP1A2 inhibition; assay type: in vitro ADME; conditions: Table 4
T4 sequence (P05177 1-516): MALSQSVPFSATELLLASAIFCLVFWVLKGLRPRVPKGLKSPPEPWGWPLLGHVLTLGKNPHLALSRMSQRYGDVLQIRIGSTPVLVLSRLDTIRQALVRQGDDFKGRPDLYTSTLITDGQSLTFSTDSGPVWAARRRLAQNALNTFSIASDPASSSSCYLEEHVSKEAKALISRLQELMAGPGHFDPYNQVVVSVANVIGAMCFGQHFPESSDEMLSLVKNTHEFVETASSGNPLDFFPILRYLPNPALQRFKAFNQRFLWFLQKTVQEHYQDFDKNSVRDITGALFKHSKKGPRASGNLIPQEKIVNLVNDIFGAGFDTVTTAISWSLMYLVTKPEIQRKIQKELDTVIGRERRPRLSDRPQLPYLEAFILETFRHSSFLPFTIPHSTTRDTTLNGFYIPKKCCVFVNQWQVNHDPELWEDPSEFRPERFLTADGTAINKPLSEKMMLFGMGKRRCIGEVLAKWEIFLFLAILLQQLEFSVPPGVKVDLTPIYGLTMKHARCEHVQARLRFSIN

mP2Y14R = biological target: T5, mP2Y14R (Mus musculus, UniProt Q9ESG6); test: cell-based
T5 sequence (Q9ESG6 1-338): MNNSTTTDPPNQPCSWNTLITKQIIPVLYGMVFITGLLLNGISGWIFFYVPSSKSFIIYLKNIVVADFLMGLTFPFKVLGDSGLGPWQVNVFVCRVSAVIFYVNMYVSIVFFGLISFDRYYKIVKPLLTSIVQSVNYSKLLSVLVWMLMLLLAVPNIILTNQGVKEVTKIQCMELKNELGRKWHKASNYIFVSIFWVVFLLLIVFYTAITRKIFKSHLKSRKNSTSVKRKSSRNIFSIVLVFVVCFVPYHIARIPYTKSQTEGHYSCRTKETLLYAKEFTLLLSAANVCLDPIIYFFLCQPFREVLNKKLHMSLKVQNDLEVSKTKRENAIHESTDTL
Excerpt: Desirably, receptor affinity is maintained across species, facilitating performance in in vivo preclinical testing in small animals, with the mouse being the most commonly used species in initial evaluation.

Plasma stability, rat = conditions: Table 4
in vivo = conditions: Wistar, rat, iv, 0.5 mg/kg
[8] = Stability in simulated gastric fluid; conditions: Table 4
[9] = Aqueous solubility, pION method; conditions: mean ± SD, Table 4
CYP2D6 [10] = biological target: T6, CYP2D6 (Homo sapiens, UniProt P10635); test: CYP2D6 inhibition; assay type: in vitro ADME; conditions: Table 4
T6 sequence (P10635 whole entry): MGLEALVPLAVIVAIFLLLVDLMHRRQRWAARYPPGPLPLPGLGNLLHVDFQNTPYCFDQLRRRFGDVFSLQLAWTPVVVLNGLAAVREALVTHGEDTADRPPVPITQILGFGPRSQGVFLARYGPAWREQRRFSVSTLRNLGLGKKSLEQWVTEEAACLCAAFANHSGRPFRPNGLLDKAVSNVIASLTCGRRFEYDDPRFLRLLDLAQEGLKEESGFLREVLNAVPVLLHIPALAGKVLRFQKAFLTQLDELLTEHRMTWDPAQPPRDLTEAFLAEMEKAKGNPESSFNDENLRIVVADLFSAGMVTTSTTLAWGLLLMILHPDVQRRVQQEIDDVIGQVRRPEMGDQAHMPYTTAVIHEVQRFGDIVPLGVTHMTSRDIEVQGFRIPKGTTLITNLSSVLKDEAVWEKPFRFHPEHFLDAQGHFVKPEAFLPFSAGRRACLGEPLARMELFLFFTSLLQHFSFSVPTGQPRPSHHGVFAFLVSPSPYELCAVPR

[11] = Microsomal stability, rat; assay type: in vitro ADME; conditions: Table 4
[12] = Microsomal stability, human; conditions: Table 4
CYP2C9 [13] = biological target: T7, CYP2C9 (Homo sapiens, UniProt P11712); test: CYP2C9 inhibition; conditions: read-out: CYP2C9 (IC50); Table 4
T7 sequence (P11712 whole entry): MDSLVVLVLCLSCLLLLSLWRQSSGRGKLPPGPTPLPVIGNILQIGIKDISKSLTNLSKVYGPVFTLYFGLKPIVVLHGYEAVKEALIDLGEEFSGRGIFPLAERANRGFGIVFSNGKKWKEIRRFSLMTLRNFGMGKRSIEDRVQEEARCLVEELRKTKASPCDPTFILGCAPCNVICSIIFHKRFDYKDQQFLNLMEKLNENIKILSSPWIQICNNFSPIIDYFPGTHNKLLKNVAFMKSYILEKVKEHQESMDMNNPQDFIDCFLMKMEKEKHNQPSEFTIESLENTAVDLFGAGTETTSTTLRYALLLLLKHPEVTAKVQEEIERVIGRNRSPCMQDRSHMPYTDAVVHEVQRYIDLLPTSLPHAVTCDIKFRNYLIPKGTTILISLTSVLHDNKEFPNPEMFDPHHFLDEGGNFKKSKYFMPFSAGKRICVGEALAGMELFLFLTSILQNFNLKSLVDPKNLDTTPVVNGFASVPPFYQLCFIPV

[14] = mouse; Table 4; Yu et al.; cited from earlier work
[15] = human; Table 4; Yu et al.; cited from earlier work
[16] = pH 7.4; mean ± SD; Table 4; Yu et al.; cited from earlier work
CYP2C19 [17] = biological target: T2, CYP2C19; conditions: Table 4; Yu et al.; cited from earlier work
[18] = mouse; Table 4; Yu et al.; cited from earlier work; remark: listed apart in the source
[19] = rat; Table 4; Yu et al.; cited from earlier work
[20] = rat; Table 4; Yu et al.; cited from earlier work; remark: listed apart in the source
CYP3A4 [21] = biological target: T1, CYP3A4; conditions: Table 4; Yu et al.; cited from earlier work
[22] = i.v. administration in rat, 0.5 mg/kg; Yu et al.; cited from earlier work
[23] = Table 4; Yu et al.; cited from earlier work
CYP1A2 [24] = biological target: T4, CYP1A2; conditions: Table 4; Yu et al.; cited from earlier work
[25] = Table 4; Yu et al.; cited from earlier work; remark: listed apart in the source
[26] = human; Table 4; Yu et al.; cited from earlier work; remark: listed apart in the source
CYP2D6 [27] = biological target: T6, CYP2D6; conditions: Table 4; Yu et al.; cited from earlier work
CYP2C9 [28] = biological target: T7, CYP2C9; conditions: Table 4; Yu et al.; cited from earlier work

T2 sequence (P33261 whole entry): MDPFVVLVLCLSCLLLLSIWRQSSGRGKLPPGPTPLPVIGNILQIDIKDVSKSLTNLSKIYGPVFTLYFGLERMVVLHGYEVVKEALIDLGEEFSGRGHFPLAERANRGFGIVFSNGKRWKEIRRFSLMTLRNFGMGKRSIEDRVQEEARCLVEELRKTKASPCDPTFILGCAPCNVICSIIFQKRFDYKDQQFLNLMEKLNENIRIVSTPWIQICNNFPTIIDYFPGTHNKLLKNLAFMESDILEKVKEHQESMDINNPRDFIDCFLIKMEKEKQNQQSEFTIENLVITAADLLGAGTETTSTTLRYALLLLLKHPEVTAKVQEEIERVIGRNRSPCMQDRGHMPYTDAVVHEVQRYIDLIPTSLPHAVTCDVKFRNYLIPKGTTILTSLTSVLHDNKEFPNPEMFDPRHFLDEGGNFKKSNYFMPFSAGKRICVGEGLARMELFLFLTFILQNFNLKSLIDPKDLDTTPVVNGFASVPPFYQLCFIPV
T1 sequence (P08684 whole entry): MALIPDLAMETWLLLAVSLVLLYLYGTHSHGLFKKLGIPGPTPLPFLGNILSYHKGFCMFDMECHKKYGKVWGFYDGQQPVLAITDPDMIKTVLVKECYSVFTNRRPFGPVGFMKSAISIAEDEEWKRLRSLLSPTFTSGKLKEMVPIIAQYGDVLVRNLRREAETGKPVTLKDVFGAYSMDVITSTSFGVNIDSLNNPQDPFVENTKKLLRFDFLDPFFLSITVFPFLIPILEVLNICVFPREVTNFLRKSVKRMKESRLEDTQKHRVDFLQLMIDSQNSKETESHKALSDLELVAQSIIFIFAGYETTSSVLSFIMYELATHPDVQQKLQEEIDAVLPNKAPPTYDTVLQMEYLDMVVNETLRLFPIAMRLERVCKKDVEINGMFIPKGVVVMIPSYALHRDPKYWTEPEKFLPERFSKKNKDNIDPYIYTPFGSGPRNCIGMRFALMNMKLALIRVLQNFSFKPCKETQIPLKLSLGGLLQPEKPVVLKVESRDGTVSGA
hERG ion channel, sequence (Q12809 whole entry): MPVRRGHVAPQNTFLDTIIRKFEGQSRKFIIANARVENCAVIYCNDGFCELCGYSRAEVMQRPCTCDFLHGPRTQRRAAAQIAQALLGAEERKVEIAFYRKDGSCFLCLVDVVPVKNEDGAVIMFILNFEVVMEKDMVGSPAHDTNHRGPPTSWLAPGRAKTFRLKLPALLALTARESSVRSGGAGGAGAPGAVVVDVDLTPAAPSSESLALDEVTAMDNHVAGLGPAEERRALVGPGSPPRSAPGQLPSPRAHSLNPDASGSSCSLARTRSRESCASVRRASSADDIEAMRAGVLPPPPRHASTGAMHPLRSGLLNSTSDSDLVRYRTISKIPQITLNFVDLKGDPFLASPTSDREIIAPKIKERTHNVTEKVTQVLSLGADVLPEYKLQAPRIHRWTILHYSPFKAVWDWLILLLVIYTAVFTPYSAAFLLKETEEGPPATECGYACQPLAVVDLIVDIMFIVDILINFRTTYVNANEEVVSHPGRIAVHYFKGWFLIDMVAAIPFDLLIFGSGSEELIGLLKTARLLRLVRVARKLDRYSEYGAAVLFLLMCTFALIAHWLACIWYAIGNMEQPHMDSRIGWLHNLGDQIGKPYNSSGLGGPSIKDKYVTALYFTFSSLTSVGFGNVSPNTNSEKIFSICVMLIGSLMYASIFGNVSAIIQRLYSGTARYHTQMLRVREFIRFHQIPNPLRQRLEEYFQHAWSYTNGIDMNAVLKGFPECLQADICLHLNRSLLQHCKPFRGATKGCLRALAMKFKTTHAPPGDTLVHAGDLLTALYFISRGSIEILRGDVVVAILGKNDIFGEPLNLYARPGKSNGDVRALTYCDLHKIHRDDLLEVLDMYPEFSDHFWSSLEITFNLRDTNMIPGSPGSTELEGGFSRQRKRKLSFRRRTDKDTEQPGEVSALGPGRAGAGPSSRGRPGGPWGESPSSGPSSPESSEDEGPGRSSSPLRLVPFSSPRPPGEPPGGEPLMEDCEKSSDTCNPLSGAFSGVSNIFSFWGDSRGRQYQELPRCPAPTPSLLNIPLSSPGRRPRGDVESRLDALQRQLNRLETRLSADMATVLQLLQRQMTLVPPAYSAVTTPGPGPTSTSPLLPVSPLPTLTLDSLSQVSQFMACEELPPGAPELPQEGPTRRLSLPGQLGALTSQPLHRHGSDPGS

SMILES: O=C(O)c1cc(-c2ccc(-c3cc(CO)on3)cc2)c2ccc(-c3ccc(C(F)(F)F)cc3)cc2c1 [Compound 32, 4-(4-(5-(Hydroxymethyl)isoxazol-3-yl)phenyl)-7-(4-(trifluoromethyl)phenyl)-2-naphthoic acid]
- IC50 (CYP3A4 [1]): > 30 µM
- IC50 (CYP2C19 [2]): > 30 µM
- IC50 (hERG ion channel): > 30 µM
- Simulated intestinal fluid (t1/2, min) [3]: >240 min
- t1/2 ([4]; i.v. administration in rat, 0.5 mg/kg, Table 4): 0.689 h
- AUC0-last ([4]; rat, i.p., 1.0 mg/kg): 650 ng·h/mL
- AUC0-∞ ([4]; rat, i.p., 1.0 mg/kg): 700 ng·h/mL
- Cl ([4]; rat, i.p., 1.0 mg/kg): 23.83 mL/min/kg
- Cmax ([4]; rat, i.p., 1.0 mg/kg): 88.4 ng/mL
- F (%) ([4]; rat, i.p., 1.0 mg/kg): 139%
- Kel ([4]; rat, i.p., 1.0 mg/kg): 0.096 h⁻¹
- T1/2 ([4]; rat, i.p., 1.0 mg/kg): 7.23 h
- Vd (mL/kg) ([4]; rat, i.p., 1.0 mg/kg): 14,900 mL/kg
- AUC0-last ([4]; rat, i.p., 3.0 mg/kg): 2060 ng·h/mL
- AUC0-∞ ([4]; rat, i.p., 3.0 mg/kg): 2120 ng·h/mL
- Cl ([4]; rat, i.p., 3.0 mg/kg): 23.67 mL/min/kg
- Cmax ([4]; rat, i.p., 3.0 mg/kg): 315 ng/mL
- F (%) ([4]; rat, i.p., 3.0 mg/kg): 147%
- Kel ([4]; rat, i.p., 3.0 mg/kg): 0.148 h⁻¹
- T1/2 ([4]; rat, i.p., 3.0 mg/kg): 4.68 h
- Vd ([4]; rat, i.p., 3.0 mg/kg): 9.57 L/kg
- AUC0-last ([4]; rat, i.p., 10 mg/kg): 4900 ng·h/mL
- AUC0-∞ ([4]; rat, i.p., 10 mg/kg): 4920 ng·h/mL
- Cl ([4]; rat, i.p., 10 mg/kg): 33.83 mL/min/kg
- Cmax ([4]; rat, i.p., 10 mg/kg): 786 ng/mL
- F (%) ([4]; rat, i.p., 10 mg/kg): 105%
- Kel ([4]; rat, i.p., 10 mg/kg): 0.233 h⁻¹
- T1/2 ([4]; rat, i.p., 10 mg/kg): 2.98 h
- Vd ([4]; rat, i.p., 10 mg/kg): 8.73 L/kg
- AUC0-last ([4]; rat, i.v., 0.5 mg/kg): 234 ng·h/mL
- AUC0-∞ ([4]; rat, i.v., 0.5 mg/kg): 238 ng·h/mL
- Cl ([4]; rat, i.v., 0.5 mg/kg): 35.17 mL/min/kg
- Cmax ([4]; rat, i.v., 0.5 mg/kg): 359 ng/mL
- Kel ([4]; rat, i.v., 0.5 mg/kg): 1.01 h⁻¹
- T1/2 ([4]; rat, i.v., 0.5 mg/kg): 0.689 h
- Vd ([4]; rat, i.v., 0.5 mg/kg): 2.09 L/kg
- IC50 (hP2Y14R): 0.015 ± 0.0044 µM
- Plasma stability (t1/2, min) (Plasma stability, mouse): >240 (m) min
- reversal of mechano-allodynia (figure legend) [5]: reversal of CCI-induced mechano-allodynia
- Microsomal stability (t1/2, min) [6]: >240 (m) min
- IC50 (CYP1A2 [7]): > 30 µM
- affinity at the mP2Y14R vs the human homologue (mP2Y14R; comparison of species, in words): nearly the same affinity in the two species
- IC50 (mP2Y14R; read-out: mP2Y14R, IC50, Table 2, tracer 2 (20 nM, 45 min), HEK293 cells): 0.0186 ± 0.0084 µM
- Plasma stability (t1/2, min) (Plasma stability, rat): TBD (h); >240 (r); min
- bioavailability (in vivo): 100%
- Simulated gastric fluid (t1/2, min) [8]: 161 min
- aqueous solubility (pH 4.0, μg/mL) ([9]; pH 4.0): 0.14 ± 0.02 μg/mL
- aqueous solubility (pH 7.4, μg/mL) ([9]; pH 7.4): 7.63 ± 1.93 μg/mL
- IC50 (CYP2D6 [10]): > 30 µM
- Microsomal stability (t1/2, min) [11]: 47.7 min
- Microsomal stability (t1/2, min) [12]: > 240 min
- IC50 (CYP2C9 [13]): 10.4 µM

SMILES: NC(=O)c1ccc(-c2cc(C(=O)O)cc(-n3cc(-c4ccc(C(F)(F)F)cc4)nn3)c2)cc1 [Compound 5]
- Plasma stability (t1/2, min) [14]: >240 (m) min
- Microsomal stability (t1/2, min) [15]: 145 (h) min
- aqueous solubility (pH 7.4, μg/mL) [16]: 138 ± 4 μg/mL
- IC50 (CYP2C19 [17]): > 30 µM
- Microsomal stability (t1/2, min) [18]: 145 min
- Plasma stability (t1/2, min) [19]: >240 (h); >240 (r); min
- Microsomal stability (t1/2, min) [20]: 108 min
- IC50 (CYP3A4 [21]): > 30 µM
- t1/2 [22]: 0.20 h
- Simulated intestinal fluid (t1/2, min) [23]: >240 min
- IC50 (CYP1A2 [24]): > 30 µM
- Simulated gastric fluid (t1/2, min) [25]: >240 min
- Plasma stability (t1/2, min) [26]: >240 (h); >240 (r); min
- IC50 (CYP2D6 [27]): > 30 µM
- IC50 (CYP2C9 [28]): > 30 µM
